How the values were obtained:
[1] = biological target: Macrophage-stimulating protein receptor (Homo sapiens, UniProt Q04912); test: Selectivity interaction (Kinase screening (Nanosyn)) EUB0000604a MST1R
[2] = biological target: Leukocyte tyrosine kinase receptor (Homo sapiens, UniProt P29376); test: Selectivity interaction (Ambit KINOMEscan and KiNATiv profiling in Jurkat cells) EUB0000090b LTK; assay type: cell-based; details: at 1 µM
[3] = biological target: Ephrin type-A receptor 5 (Homo sapiens) (UniProt P54756); test: Selectivity interaction (Ambit KINOMEscan and KiNATiv profiling in Jurkat cells) EUB0000090b EPHA5; assay type: cell-based; details: at 1 µM
Sequence of Ephrin type-A receptor 5 (Homo sapiens) (P54756 whole entry): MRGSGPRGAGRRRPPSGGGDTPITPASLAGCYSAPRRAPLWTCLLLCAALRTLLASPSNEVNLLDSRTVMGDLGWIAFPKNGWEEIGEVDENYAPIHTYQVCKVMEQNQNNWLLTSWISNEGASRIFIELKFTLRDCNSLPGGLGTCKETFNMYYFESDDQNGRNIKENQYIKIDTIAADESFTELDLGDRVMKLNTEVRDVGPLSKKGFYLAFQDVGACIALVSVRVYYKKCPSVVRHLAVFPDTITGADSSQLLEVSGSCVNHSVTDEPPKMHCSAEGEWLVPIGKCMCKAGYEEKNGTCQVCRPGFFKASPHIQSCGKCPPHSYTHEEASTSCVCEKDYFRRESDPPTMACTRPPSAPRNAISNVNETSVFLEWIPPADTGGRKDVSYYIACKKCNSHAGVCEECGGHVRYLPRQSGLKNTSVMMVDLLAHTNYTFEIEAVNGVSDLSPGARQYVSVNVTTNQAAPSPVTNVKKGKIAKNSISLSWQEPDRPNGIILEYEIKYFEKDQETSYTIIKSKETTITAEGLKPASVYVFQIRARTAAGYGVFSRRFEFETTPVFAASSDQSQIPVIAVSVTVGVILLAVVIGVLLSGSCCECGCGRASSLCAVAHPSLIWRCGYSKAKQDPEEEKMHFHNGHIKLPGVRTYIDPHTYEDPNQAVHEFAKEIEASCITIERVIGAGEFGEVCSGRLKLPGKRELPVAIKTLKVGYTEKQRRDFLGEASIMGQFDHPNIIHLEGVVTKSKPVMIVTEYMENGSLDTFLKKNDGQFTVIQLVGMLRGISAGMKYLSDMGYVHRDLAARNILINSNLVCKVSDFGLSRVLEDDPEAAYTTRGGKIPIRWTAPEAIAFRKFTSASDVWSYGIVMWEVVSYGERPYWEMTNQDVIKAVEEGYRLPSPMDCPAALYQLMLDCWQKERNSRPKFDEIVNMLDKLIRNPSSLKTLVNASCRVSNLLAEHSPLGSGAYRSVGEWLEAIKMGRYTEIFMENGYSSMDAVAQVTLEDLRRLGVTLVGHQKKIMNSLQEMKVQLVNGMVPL

[4] = biological target: Protein arginine N-methyltransferase 1 (Homo sapiens, UniProt Q99873); test: Selectivity interaction (Transferase panel (protein, RNA, and DNA methyltransferases. and EP300 (acetyltransferase))) EUB0000270b PRMT1
Sequence of Protein arginine N-methyltransferase 1 (Q99873 whole entry, looked up): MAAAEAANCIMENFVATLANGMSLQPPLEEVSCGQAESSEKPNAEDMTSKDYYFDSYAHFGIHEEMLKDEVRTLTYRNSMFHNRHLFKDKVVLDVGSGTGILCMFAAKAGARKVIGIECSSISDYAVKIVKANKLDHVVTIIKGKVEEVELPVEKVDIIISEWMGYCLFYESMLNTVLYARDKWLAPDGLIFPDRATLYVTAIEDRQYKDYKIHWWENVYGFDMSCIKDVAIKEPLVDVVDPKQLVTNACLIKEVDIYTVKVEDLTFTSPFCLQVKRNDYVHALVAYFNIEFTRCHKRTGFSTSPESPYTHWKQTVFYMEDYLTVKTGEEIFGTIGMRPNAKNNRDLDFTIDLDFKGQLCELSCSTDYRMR

[5] = biological target: Ribosomal protein S6 kinase alpha-1 (Homo sapiens, UniProt Q15418); test: Selectivity interaction (KinomeScan (DiscoverX)) EUB0000595a RPS6KA1; details: at 10 µM
Sequence of Ribosomal protein S6 kinase alpha-1 (Q15418 whole entry): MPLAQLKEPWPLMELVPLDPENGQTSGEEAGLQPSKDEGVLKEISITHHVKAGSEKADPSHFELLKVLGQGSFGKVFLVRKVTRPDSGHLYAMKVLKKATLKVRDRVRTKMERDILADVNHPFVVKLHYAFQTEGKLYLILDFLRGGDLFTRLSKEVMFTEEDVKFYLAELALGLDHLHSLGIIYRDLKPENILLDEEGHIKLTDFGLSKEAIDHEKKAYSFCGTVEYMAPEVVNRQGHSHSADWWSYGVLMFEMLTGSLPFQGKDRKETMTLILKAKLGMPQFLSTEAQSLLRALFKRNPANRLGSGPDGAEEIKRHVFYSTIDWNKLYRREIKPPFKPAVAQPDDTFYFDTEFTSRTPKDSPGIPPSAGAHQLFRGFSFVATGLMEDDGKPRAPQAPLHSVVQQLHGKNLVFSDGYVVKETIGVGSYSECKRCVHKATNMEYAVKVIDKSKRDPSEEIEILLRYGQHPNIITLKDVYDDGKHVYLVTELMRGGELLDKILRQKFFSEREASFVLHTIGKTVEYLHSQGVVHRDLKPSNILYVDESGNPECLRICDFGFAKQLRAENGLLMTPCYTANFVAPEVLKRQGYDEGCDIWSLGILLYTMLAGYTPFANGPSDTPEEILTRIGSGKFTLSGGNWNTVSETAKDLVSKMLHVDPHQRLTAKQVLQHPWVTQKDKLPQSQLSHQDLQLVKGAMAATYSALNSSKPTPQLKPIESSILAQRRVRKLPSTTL

[6] = biological target: Serine/threonine-protein kinase PAK 2 (Homo sapiens) (UniProt Q13177); test: Selectivity interaction (KinomeScan (DiscoverX)) EUB0000229b PAK2; details: at 10 µM
Sequence of Serine/threonine-protein kinase PAK 2 (Homo sapiens) (Q13177 whole entry, canonical isoform): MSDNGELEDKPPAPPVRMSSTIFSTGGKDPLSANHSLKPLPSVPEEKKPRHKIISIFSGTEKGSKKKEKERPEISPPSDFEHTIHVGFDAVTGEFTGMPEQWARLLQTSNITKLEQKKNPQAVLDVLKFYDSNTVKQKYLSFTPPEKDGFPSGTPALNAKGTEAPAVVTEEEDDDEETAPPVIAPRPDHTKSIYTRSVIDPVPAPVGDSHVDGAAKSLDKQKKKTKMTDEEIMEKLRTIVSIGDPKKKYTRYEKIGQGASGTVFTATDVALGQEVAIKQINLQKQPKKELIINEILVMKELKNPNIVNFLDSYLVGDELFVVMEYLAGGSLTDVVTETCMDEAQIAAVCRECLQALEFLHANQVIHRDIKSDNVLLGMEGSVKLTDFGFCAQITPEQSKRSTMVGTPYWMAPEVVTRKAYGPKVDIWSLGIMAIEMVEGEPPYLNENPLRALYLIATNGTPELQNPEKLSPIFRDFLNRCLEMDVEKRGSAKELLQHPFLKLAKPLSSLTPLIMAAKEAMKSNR

[7] = biological target: Casein kinase I isoform alpha (Homo sapiens, UniProt P48729); test: Selectivity interaction (ActivX KiNativ screen (ex vivo kinase selectivity in human PBMCs)) EUB0001619a CSNK1A1; assay type: cell-based; details: PBMC, at 1 µM
Sequence of Casein kinase I isoform alpha (P48729 2-337 limits assumed): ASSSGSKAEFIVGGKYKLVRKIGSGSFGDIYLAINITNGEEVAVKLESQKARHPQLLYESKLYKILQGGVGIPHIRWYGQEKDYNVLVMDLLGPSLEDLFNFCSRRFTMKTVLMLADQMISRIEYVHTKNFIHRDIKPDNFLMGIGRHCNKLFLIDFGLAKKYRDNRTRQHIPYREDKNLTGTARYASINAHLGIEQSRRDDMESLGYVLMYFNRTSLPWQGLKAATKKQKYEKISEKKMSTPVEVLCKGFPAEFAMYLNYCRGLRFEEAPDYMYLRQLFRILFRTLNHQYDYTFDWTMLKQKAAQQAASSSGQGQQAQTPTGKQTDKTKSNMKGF

[8] = biological target: T1, Serine/threonine-protein kinase 3 (Homo sapiens) (UniProt Q13188); test: Selectivity interaction (Kinase panel (DSF assay)) EUB0001559a STK3
T1 sequence (whole entry): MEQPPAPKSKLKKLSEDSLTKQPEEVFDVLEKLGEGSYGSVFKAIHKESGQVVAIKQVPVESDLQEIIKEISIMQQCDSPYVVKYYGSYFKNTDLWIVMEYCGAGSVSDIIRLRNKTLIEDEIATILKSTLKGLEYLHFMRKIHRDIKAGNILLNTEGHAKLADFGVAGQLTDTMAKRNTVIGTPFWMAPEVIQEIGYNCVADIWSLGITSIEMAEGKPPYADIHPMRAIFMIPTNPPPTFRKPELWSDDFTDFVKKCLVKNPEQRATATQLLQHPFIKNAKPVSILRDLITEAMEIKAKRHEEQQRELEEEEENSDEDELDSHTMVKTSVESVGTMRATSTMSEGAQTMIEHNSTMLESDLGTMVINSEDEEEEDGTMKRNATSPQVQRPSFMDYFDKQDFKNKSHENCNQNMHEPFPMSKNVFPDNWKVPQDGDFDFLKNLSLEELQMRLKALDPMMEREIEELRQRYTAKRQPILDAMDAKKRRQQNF

[9] = biological target: T2, Receptor-interacting serine/threonine-protein kinase 1 (Homo sapiens) (UniProt Q13546); test: Selectivity interaction (KinomeScan (DiscoverX)) EUB0000607a RIPK1; details: at 10 µM
T2 sequence (whole entry): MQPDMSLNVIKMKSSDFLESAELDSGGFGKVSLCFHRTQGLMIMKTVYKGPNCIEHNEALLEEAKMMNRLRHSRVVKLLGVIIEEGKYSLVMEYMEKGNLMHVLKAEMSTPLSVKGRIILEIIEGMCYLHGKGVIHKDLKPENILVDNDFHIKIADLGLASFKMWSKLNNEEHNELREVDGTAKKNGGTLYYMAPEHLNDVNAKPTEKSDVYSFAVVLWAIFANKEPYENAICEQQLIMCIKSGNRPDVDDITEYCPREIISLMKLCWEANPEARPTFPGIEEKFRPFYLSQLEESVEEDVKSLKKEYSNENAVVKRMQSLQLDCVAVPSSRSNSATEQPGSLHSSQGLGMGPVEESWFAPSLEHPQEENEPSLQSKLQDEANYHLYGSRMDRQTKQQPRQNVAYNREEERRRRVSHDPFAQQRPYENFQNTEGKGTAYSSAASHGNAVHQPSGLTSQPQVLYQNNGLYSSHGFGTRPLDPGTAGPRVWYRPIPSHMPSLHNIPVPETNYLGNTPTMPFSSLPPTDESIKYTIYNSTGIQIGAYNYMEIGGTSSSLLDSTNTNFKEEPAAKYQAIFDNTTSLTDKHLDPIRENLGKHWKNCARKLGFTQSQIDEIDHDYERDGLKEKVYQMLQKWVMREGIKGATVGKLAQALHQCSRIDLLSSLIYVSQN

[10] = biological target: T3, Serine/threonine-protein kinase D3 (Homo sapiens) (UniProt O94806); test: Selectivity interaction (KinomeScan (DiscoverX)) EUB0000666a PRKD3; details: at 10 µM
T3 sequence (whole entry): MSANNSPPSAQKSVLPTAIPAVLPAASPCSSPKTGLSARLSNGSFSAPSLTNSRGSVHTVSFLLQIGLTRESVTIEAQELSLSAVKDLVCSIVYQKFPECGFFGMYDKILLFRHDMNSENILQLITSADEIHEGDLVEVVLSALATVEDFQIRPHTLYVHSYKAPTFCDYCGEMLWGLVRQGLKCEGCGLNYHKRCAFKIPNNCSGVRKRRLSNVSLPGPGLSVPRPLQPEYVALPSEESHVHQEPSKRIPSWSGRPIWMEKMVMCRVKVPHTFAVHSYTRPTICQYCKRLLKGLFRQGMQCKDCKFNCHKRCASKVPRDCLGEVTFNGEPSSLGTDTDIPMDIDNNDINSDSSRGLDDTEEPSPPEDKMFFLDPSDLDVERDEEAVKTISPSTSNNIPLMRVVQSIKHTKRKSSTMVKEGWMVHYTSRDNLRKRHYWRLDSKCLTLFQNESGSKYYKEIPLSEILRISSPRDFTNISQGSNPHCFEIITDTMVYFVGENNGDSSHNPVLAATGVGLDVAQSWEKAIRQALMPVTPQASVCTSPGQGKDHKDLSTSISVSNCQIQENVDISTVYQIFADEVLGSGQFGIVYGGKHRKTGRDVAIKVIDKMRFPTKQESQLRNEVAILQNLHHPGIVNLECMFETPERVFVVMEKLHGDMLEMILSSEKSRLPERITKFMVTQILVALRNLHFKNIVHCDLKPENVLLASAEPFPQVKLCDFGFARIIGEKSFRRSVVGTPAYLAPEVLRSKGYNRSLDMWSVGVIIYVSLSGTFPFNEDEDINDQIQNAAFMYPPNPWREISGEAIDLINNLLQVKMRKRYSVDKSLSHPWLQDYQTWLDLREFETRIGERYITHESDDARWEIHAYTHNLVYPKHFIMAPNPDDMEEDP

Sequence of Macrophage-stimulating protein receptor (Q04912 25-304 limits assumed): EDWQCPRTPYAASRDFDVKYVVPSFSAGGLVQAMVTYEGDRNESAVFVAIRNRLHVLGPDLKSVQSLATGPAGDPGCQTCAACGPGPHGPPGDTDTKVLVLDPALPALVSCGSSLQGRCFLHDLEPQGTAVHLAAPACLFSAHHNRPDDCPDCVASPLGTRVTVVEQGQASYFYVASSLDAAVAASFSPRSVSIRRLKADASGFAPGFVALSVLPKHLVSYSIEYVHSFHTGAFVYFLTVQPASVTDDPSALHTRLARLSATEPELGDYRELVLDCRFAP
Sequence of Macrophage-stimulating protein receptor (Q04912 310-1400 limits assumed): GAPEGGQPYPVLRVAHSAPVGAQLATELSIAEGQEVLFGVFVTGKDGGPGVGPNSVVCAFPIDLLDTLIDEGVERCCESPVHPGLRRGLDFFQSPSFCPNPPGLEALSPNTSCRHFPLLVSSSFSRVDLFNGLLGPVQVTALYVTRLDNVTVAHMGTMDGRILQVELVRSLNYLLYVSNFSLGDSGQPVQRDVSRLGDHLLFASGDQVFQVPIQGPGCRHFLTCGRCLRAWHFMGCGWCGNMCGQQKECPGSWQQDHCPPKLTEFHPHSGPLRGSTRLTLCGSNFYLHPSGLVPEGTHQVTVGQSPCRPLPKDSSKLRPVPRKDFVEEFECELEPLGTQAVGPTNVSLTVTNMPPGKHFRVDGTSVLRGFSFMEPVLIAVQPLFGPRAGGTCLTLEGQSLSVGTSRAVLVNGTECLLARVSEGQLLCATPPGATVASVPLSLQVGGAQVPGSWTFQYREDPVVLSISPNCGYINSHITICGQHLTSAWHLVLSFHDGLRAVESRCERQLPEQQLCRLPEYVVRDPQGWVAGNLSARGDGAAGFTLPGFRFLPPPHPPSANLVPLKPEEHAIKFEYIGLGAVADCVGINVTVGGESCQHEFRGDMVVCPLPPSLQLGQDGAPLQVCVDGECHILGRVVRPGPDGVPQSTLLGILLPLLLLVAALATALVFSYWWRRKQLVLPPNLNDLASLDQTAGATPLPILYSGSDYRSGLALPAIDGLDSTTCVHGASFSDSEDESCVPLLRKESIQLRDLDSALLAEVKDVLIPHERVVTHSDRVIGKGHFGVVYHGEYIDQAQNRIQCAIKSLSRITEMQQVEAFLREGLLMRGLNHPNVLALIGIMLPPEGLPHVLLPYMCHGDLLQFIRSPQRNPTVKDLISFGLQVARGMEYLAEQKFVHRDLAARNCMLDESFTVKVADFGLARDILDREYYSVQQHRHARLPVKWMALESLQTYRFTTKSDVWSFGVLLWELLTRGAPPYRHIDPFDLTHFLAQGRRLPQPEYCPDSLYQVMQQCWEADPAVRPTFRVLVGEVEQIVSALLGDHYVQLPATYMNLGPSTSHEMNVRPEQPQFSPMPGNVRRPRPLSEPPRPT

Cc1cnc(Nc2ccc(F)cc2Cl)nc1-c1c[nH]c(C(=O)N[C@H](CO)c2cccc(Cl)c2)c1
% of inhibition [1]: 1%

CN(C)C/C=C/C(=O)Nc1ccc(C(=O)N2CCCC(Nc3ncc(Cl)c(-c4c[nH]c5ccccc45)n3)C2)cc1 (stereo unspecified)
% of control [2]: 84% | % of control [3]: 89%

Cc1cc(CN)cc(C)c1-c1ncn(C)c1-c1cncn1C
% activity ([4]; at 1 µM): > 90% | % activity ([4]; at 10 µM): > 80%

COCC(=O)NC/C=C/c1ccc2ncnc(Nc3ccc(Oc4ccc(C)nc4)c(C)c3)c2c1 [CP-724714]
% of control [5]: 73%

COc1cc(N(C)c2ccnc3ccc(C(F)(F)F)cc23)cc(OC)c1OC
% binding [6]: 77%

N#Cc1cccc(-c2c[nH]c3ncnc(N4CCOCC4)c23)c1
% of inhibition [7]: -7%

CN(C(=O)c1cnn2cccnc12)c1cc2c(cc1N1CCOCC1)C(=O)N(C[C@@H](F)C(C)(C)O)C2
dTM [8]: 1.5 K

CNC(=O)Nc1ccc(-c2nc(N3CC4CCC(C3)O4)c3cnn(C4CCC5(CC4)OCCO5)c3n2)cc1
% of control [9]: 83%

O=C(NOC[C@H](O)CO)c1ccc(F)c(F)c1Nc1ccc(I)cc1F
% of control [10]: 70%

— ChEMBL document CHEMBL5465560, “Selectivity Literature for EUbOPEN Chemogenomic Library” (2024)
